We go through 77 molecules from PubChem BioAssay AID720587 (Broad Institute, 2013).

Molecules are shown by their SMILES.

The test system of the assay is A673 Ewing sarcoma viability, CellTiter-Glo ATP luminescence, 72 h. Kind of assay: EWS/Fli1-dependent A673 cell killing, confirmation, CellTiter-Glo luminescence, cherry-pick retest (AID 720587). (Cellular ATP, detected with luciferase, serves as a proxy for viable cell number.)

Consider `COC(=O)C[C@@H]1CC[C@@H]2[C@H](COc3ccc(NC(=O)c4ccc(F)cc4)cc3C(=O)N2C)O1`, for which the AC35 was 23 µM.
On to `OCC1OC(n2ccc3c2ncn2ncnc32)C(O)C1O` (configuration not stated), for which the AC35 was 0.693 µM.
The same measure for `COc1ccc(-c2cnc3c(NC=O)cc(-c4ccccc4OC)cn23)cc1OC`: 0.101 µM; for `N=c1ccn2c(n1)O[C@H]1[C@H](O)[C@@H](CO)O[C@H]12`: 0.74 µM.
The same measure for `Cc1cccc(N2CCN(C3C(=O)Nc4ccccc4-n4nnnc43)CC2)c1C` (configuration not stated): 13.1 µM.
The same measure for `COC(=O)C[C@@H]1CC[C@H]2[C@H](COc3ccc(NC(=O)Nc4cc(C)cc(C)c4)cc3C(=O)N2C)O1`: 22.2 µM; for `O=C(N/N=C/c1cccs1)c1n[nH]c2c1CCCC2`: 17.7 µM; for `Oc1c(Cl)cc(Cl)c(Cl)c1Cc1c(O)c(Cl)cc(Cl)c1Cl`: 15.9 µM.
For the molecule `O=C(NC[C@@H]1N[C@@H](CO)[C@H]1c1ccc(C2=CCCCC2)cc1)c1cccc(F)c1`, the AC35 was 11.1 µM.
Turning to `O=C(Nc1ccc2c(c1)OCO2)N1C[C@@H]2N[C@H](C1)C2c1ccc(C=Cc2ccccc2)cc1` (some centres not stated), the AC35 is 4.6 µM.
For the molecule `O=c1[nH]c(=O)n(C2C[C@H](O)[C@@H](CO)O2)cc1C(F)(F)F` (some centres not stated), the AC35 is 3.17 µM.
For `CCc1nc(N)nc(N)c1-c1ccc(Cl)c(N=[N+]=[N-])c1`, the AC35 is 7.14 µM.
Consider `C[C@@H]1CN([C@@H](C)CO)C(=O)c2cc(NS(=O)(=O)c3ccc(F)cc3)ccc2O[C@@H]1CN(C)Cc1ccc(C(=O)Nc2ccccc2N)cc1`, for which the AC35 was 11.3 µM.
Regarding `Cc1ccc(N2C(=O)c3cccc4c(N)ccc(c34)C2=O)c2cccnc12`, the AC35 was 0.0576 µM.
Consider `C(=Cc1cnc2ccccc2n1)c1ccc2c(c1)OCO2`, for which the AC35 was 8.73 µM.
As for `CCCCCCN(C(=O)CCCCCN1C(=O)NC(c2ccc(Cl)cc2)C(C(=O)OCc2ccccc2)=C1C)C(C(=O)NCCCC)c1ccc(OCC(=O)OC)c(C(=O)OC)c1` (configuration not stated), the AC35 was 10.8 µM.
For `C[C@@H]1CN([C@@H](C)CO)C(=O)c2cc(N(C)C)ccc2O[C@H]1CN(C)Cc1ccc(C(=O)Nc2ccccc2N)cc1`, the AC35 is 13.2 µM.
For the molecule `COC(=O)C(CC#Cc1ccc2c(c1)[C@]1(C(=O)N2)[C@H](c2ccc(OCCO)cc2)N2[C@H](c3ccccc3)[C@H](c3ccccc3)OC(=O)[C@H]2[C@@H]1C(=O)N1CCN(c2ncccn2)CC1)C(=O)OC`, the AC35 is 7.81 µM.
Turning to `O=c1ccc2ccccc2c2ccccc12`, the AC35 was 6.04 µM.
Regarding `C[C@@H]1CN([C@@H](C)CO)C(=O)Cc2cc(N(C)C)ccc2O[C@H]1CN(C)Cc1ccc(C(=O)Nc2ccccc2N)cc1`, the AC35 is 8.7 µM.
In the case of `C[C@H]1CN([C@@H](C)CO)C(=O)Cc2cc(NC(=O)C3CC3)ccc2O[C@H]1CN(C)S(=O)(=O)c1ccc(Cl)cc1`, the AC35 was 15.6 µM.
As for `CC(=NNc1ccc2ccccc2n1)c1ccccn1`, the AC35 is 0.234 µM.
Consider `COc1cc2c(cc1OC)C(C)N(C(=O)c1cc(Cl)nc(Cl)c1)CC2` (configuration not stated), for which the AC35 was 12.1 µM.
In the case of `COc1ccccc1C(CCNCc1ccc(N(C)C)cc1)c1ccc(OC(C)C)cc1` (configuration not stated), the AC35 was 4.19 µM.
For the molecule `O=C(Nc1ccc(Br)cc1)c1ccc(F)c(S(=O)(=O)N2CCN(c3ccccn3)CC2)c1`, the AC35 is 9.42 µM.
In the case of `Cc1ccc(C(C)C)c(OCc2ccc(C(=O)N/N=C/c3ccc(O)cc3O)cc2)c1`, the AC35 is 0.296 µM.
For `COc1ccc([Si](C)(C)[C@H]2[C@H](CCO)O[C@@]3(C(=O)N(c4ccccc4)c4ccccc43)[C@@H]2C)cc1`, the AC35 is 7.61 µM.
Consider `CC(=NNc1ccc2ccccc2n1)c1ccccc1O`, for which the AC35 was 13.9 µM.
For `Cc1ccc(S(=O)(=O)Nc2ccc3c(c2)C(=O)N([C@H](C)CO)C[C@@H](C)[C@@H](CN(C)Cc2ccc(C(=O)Nc4ccccc4N)cc2)O3)cc1`, the AC35 is 11.9 µM.
Turning to `C[C@@H]1CN([C@H](C)CO)C(=O)Cc2cc(NC(=O)CCCCCC(=O)Nc3ccccc3N)ccc2O[C@@H]1CN(C)CC1CCCCC1`, the AC35 was 13.4 µM.
`C[C@@H]1CN([C@@H](C)CO)C(=O)c2cc(NC(=O)c3ccccc3)ccc2O[C@@H](C)CCCCO[C@H]1CN(C)C(=O)Nc1cccc2ccccc12`: the AC35 is 0.62 µM.
The same measure for `O=C(C[C@H]1C[C@H]2c3cc(NS(=O)(=O)c4ccc(F)cc4)ccc3O[C@H]2[C@H](CO)O1)NCc1ccc(Oc2ccccc2)cc1`: 12.6 µM.
The same measure for `CN(CCO)c1ccc(/C=N/Nc2nncc3ccccc23)cc1`: 19.9 µM; for `CN=c1scc(-c2ccccc2F)n1/N=C/c1ccc[nH]1`: 10.1 µM; for `Nc1cc2c(cc1Br)[nH]c(=O)c1ccccc12`: 16.6 µM.
The same measure for `Nc1nc(N)c2c(ccc3nccc32)[nH]1`: 7.01 µM; for `C[C@@H]1CN([C@@H](C)CO)S(=O)(=O)c2ccc(C#Cc3ccncc3)cc2O[C@H]1CN(C)S(=O)(=O)c1ccccc1`: 12.4 µM; for `COC(=O)Cc1[nH]n(-c2nc3ccccc3s2)c(=O)c1C(C)=Nc1ccc(OC)cc1`: 19.2 µM.
`COc1cccc(-c2cccc(-c3nc(C(=O)NCC(F)(F)F)cc4c3[C@H](CCO)N([S@@](=O)C(C)(C)C)C4)c2)c1`: the AC35 is 8.4 µM.
Regarding `CC(C)(C)c1ccc(Oc2ccc(NC(=O)c3ccccc3C(=O)O)cn2)cc1`, the AC35 is 22.2 µM.
Take `COCC(=O)Nc1ccc2c(c1)[C@@H]1C[C@@H](CC(=O)NCc3ccc(-c4ccccc4)cc3)O[C@@H](CO)[C@@H]1O2`: the AC35 is 12.7 µM.
As for `COC(=O)C[C@@H]1CC[C@@H]2[C@H](COc3ccc(NC(=O)c4cc(C)on4)cc3C(=O)N2C)O1`, the AC35 is 14.5 µM.
As for `C[C@@H]1O[C@@H](O[C@@H]2C=C3CCC4C(CC[C@]5(C)[C@@H](c6ccc(=O)oc6)CC[C@]45O)[C@@]3(C)CC2)[C@H](O)[C@H](O)[C@H]1O` (some centres not stated), the AC35 is 0.0136 µM.
The same measure for `CN(C)c1ccc(-c2ccnc3c2CC(C)(C(=O)NCc2ccco2)O3)cc1` (configuration not stated): 7.77 µM; for `Cc1cccc(NC(=O)CN2CCN(C(=O)CNC(=O)c3ccc(-c4ccccc4)cc3)CC2)c1C`: 12.8 µM.
For `COc1ccc(NC(=S)N=Nc2c(O)[nH]c3ccccc23)cc1`, the AC35 was 1.75 µM.
The same measure for `CNC[C@H](CC1CCCCC1)NC[C@H](CO)NCCc1cccc(C(F)(F)F)c1`: 9.23 µM; for `C#CCOCCOCCOCCNc1nc(N2CCN(C(=O)CCCCCCCCCCNC(=O)Cn3cc(C[C@@H](C)O)nn3)CC2)nc(N2CCN(C(=O)CCCCCCCCCCNC(=O)[C@H](CO)n3cc(CCCSC)nn3)CC2)n1`: 13.3 µM.
Regarding `COc1ccc(CCCNC(=O)C2Cc3c(-c4ccc5c(c4)OCO5)ccnc3O2)cc1` (configuration not stated), the AC35 is 15.8 µM.
Take `CCOc1ccc(OCc2ccc(C(=O)NN=Cc3ccc[nH]3)cc2)cc1`: the AC35 was 0.667 µM.
The same measure for `C[C@@H]1O[C@@H](O[C@H]2C[C@@H](O)[C@]3(CO)[C@@H]4C(CC[C@]3(O)C2)[C@@]2(O)CC[C@H](C3COC(=O)C3)[C@@]2(C)C[C@H]4O)[C@H](O)[C@H](O)[C@H]1O` (some centres not stated): 2.3 µM; for `COc1ccc(OC)c(-c2nnc3n2N=C(c2ccc(OC)c(OC4CCCC4)c2)CS3)c1`: 2.71 µM.
The same measure for `COC(=O)C[C@@H]1CC[C@@H]2[C@H](COc3ccc(NC(=O)c4ccc(F)c(F)c4)cc3C(=O)N2C)O1`: 19.7 µM; for `CN(C)c1ncnc2c1ccn2C1OC(CO)C(O)C1O` (configuration not stated): 2.94 µM; for `CC(C)(C)[S@](=O)N1Cc2cc(C(=O)NCC(F)(F)F)nc(-c3cccc(-c4cccc(F)c4)c3)c2[C@@H]1CCO`: 14.3 µM.
The same measure for `CCc1ccc(S(=O)(=O)c2ccc(-n3nc(C)cc3N)cc2)cc1`: 17.8 µM; for `COC1C(C)OC(OC2CC(C)(O)Cc3cc4c(c(O)c32)C(=O)c2c(O)cc3c(c2C4=O)OC2OC3(C)C(O)C(N(C)C)C2O)C(OC)C1(C)OC` (configuration not stated): 0.0582 µM; for `C=C1C(=O)OC2C1CCC(C)C1C=CC(=O)C12C` (configuration not stated): 7.41 µM.
For the molecule `Cc1cc(C(=O)Nc2ccc3c(c2)C(=O)N(C)[C@@H]2CC[C@@H](CC(=O)NCc4ccc(-c5ccccc5)cc4)O[C@H]2CO3)no1`, the AC35 is 8.06 µM.
Take `CCCCc1c(Cc2ccccc2)ncn1CCc1ccccc1OC`: the AC35 is 15 µM.
The same measure for `COC1C(O)C(C)OC(OC2CCC3(C)C(CCC4C3C(O)CC3(C)C(C5=CC(=O)OC5)CCC43O)C2)C1O` (configuration not stated): 0.228 µM; for `CCCCCCCCCCCCCCCCn1cc[n+](C)c1`: 12.6 µM; for `CCCC[C@@H]1Cc2[nH][nH]c(=O)c2[C@H](c2ccc3ccccc3c2)O1`: 7.67 µM.
`Cc1cccc(/C=N/Nc2ccc3ccccc3n2)c1`: the AC35 was 18.9 µM.
In the case of `Cc1cc2c(C(C)C)c(O)c(O)c(C=O)c2c(O)c1-c1c(C)cc2c(C(C)C)c(O)c(O)c(C=O)c2c1O`, the AC35 was 6.09 µM.
On to `Cc1c(Cc2ccc3c(c2)OCO3)sc(NC(=O)C(C)(C)C)c1C#N`, for which the AC35 is 14.9 µM.
As to `C[C@@H]1CN([C@@H](C)CO)C(=O)c2cc(NC(=O)Nc3ccccc3)ccc2O[C@@H]1CN(C)Cc1ccc(C(=O)Nc2ccccc2N)cc1`, the AC35 was 7.56 µM.
In the case of `COC(=O)C[C@@H]1CC[C@@H]2[C@@H](COc3ccc(NC(=O)Nc4cccc(Cl)c4)cc3C(=O)N2C)O1`, the AC35 is 10.3 µM.
As for `C=C(C(=O)c1ccccc1)C(C)C(=C)C(=O)c1ccccc1`, the AC35 is 4.81 µM.
Regarding `C[C@@H]1CCCCO[C@H](CN(C)Cc2ccc(C(=O)Nc3ccccc3N)cc2)[C@@H](C)CN([C@H](C)CO)C(=O)c2cc(NS(=O)(=O)c3ccc(F)cc3)ccc2O1`, the AC35 was 14.1 µM.
As to `COc1cc(/C=C/C(=O)/C=C(O)/C=C/c2ccc(O)c(OC)c2)ccc1O`, the AC35 is 2.13 µM.
On to `C[C@H]1CN([C@@H](C)CO)C(=O)c2cccc(NC(=O)CCCCCC(=O)Nc3ccccc3N)c2O[C@@H]1CN(C)Cc1ccc2c(c1)OCO2`, for which the AC35 was 23.6 µM.
Turning to `Cc1nn(-c2ccc(F)cc2)c2nc(N)c(C#N)c(-c3ccc(O)c(O)c3)c12`, the AC35 was 8.63 µM.
As for `C[C@H]1CN([C@@H](C)CO)C(=O)c2cc(N(C)C)ccc2O[C@@H]1CN(C)Cc1ccc(C(=O)Nc2ccccc2N)cc1`, the AC35 is 14.1 µM.
Take `CCc1ccc(/C=C2\SC(=S)N(CCCC(=O)N3CCN(C)CC3)C2=O)cc1`: the AC35 was 13.1 µM.
The same measure for `COc1ccc(-c2cn(-c3ccc(OC)cc3)c3[n+]2-c2ccccc2CC3)cc1`: 13.6 µM.
On to `C[C@H]1CN([C@@H](C)CO)C(=O)c2cccc(NC(=O)c3ccc(-c4nccs4)cc3)c2O[C@@H]1CN(C)Cc1ccc(C(=O)Nc2ccccc2N)cc1`, for which the AC35 was 18.1 µM.
